Results on 14 molecules are retold here after ChEMBL document CHEMBL1914405, “Discovery of novel spirocyclic inhibitors of fatty acid amide hydrolase (FAAH). Part 1: identification of 7-azaspiro[3.5]nonane and 1-oxa-8-azaspiro[4.5]decane as lead scaffolds” (Bioorg Med Chem Lett, 2011).

Calls of active or inactive are those of the source. The rule behind the calls is not given here.

Data set [1] addresses T1, Fatty-acid amide hydrolase 1 (Homo sapiens) (UniProt O00519).
T1 sequence (whole entry): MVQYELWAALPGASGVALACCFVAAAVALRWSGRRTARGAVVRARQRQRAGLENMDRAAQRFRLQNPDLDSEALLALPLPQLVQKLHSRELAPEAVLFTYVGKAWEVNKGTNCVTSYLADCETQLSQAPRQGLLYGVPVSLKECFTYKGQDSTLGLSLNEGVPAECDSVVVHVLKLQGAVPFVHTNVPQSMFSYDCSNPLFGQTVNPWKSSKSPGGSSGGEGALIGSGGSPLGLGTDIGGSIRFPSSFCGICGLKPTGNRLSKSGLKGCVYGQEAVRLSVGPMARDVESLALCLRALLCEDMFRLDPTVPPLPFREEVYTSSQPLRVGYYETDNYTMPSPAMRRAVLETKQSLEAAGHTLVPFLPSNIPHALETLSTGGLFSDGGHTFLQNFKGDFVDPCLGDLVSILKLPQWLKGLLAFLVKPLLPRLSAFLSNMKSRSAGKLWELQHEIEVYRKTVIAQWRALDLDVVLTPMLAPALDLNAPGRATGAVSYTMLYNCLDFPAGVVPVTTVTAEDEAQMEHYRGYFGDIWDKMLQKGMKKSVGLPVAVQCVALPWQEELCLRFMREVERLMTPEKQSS
The data set is described as follows: Ratio of Kinact to Ki for human FAAH by enzyme coupled assay.

Data set [2] concerns the target Voltage-gated inwardly rectifying potassium channel KCNH2 (Homo sapiens, UniProt Q12809). Kind of data set: Inhibition of human ERG.
The subject of another data set is Rattus norvegicus. The data set is described as follows: Analgesic activity against complete Freund's adjuvant-induced pain in rat at 25 mg/kg, ip. It counts as functional, organism-based. Also on record: dose 25 mg/kg.

Voltage-gated inwardly rectifying potassium channel KCNH2, sequence (Q12809 whole entry): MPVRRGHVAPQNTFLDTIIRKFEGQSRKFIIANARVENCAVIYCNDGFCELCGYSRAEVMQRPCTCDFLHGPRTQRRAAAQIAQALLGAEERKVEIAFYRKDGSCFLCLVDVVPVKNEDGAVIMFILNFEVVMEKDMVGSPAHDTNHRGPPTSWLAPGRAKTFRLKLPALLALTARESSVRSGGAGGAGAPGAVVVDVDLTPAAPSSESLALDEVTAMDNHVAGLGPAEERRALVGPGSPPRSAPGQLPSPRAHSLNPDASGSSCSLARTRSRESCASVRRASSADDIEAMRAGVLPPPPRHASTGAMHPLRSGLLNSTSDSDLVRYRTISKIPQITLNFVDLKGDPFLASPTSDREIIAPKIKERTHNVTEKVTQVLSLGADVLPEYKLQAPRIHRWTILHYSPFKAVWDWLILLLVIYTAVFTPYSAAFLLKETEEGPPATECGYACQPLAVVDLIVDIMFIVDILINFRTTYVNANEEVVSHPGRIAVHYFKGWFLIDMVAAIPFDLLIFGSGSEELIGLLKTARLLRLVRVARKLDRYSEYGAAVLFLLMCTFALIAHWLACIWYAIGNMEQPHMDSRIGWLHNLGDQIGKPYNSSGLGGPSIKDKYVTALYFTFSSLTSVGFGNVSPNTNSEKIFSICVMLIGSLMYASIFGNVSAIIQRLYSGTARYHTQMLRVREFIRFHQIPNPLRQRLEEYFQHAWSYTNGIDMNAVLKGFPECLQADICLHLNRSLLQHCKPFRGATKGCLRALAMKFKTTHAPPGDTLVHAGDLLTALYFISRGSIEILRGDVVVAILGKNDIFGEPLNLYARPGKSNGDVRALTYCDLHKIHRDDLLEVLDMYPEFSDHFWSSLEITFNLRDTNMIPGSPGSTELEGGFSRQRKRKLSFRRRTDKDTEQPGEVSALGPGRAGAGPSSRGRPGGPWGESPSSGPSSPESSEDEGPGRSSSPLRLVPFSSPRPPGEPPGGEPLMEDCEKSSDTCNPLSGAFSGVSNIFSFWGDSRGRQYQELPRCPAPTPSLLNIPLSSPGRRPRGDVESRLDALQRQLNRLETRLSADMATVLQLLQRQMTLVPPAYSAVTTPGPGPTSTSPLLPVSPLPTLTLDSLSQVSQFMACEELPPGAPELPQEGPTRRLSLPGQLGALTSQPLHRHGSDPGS

Regarding `Cc1noc(NC(=O)N2CCC3(CC2)CC(c2cccc(Oc4ccc(C(F)(F)F)cn4)c2)C3)c1C`, the Ratio in data set [1] was 1760 M⁻¹ s⁻¹. The “inhibition (INH)” value in data set [2] was “Active”. For the same molecule, in the data set with Rattus norvegicus, the result was Active.

Take `O=C(Nc1cccnn1)N1CCC2(CC1)CC(c1cccc(Oc3ccc(C(F)(F)F)cn3)c1)C2`: the Ratio in data set [1] was 1570 M⁻¹ s⁻¹. The “inhibition (INH)” value in data set [2] was “Active”.

For the molecule `O=C(Nc1cccnc1)N1CCC2(CC1)CC(c1cccc(Oc3ccc(C(F)(F)F)cn3)c1)CO2` (stereo not drawn), the Ratio in data set [1] was found to be 2080 M⁻¹ s⁻¹.

For the molecule `O=C(Nc1cccnn1)N1CCC2(CC1)CC(Cc1cccc(Oc3ccc(C(F)(F)F)cn3)c1)C2`, in data set [1], the Ratio is 272 M⁻¹ s⁻¹.

`O=C(Nc1cccnn1)N1CCC2(CC1)C[C@H](c1cccc(Oc3ccc(C(F)(F)F)cn3)c1)CO2`: the Ratio in data set [1] stood at 3040 M⁻¹ s⁻¹. Besides, in data set [2], the “inhibition (INH)” value is listed as “Active”.

On to `O=C(Nc1cccnn1)N1CCC2(CC1)C[C@@H](c1cccc(Oc3ccc(C(F)(F)F)cn3)c1)CO2`, for which the Ratio in data set [1] was determined as 1340 M⁻¹ s⁻¹.

On to `Cc1noc(NC(=O)N2CCC3(CC2)CC(c2cccc(Oc4ccc(C(F)(F)F)cn4)c2)CO3)c1C` (stereo not drawn), for which the Ratio in data set [1] came out at 515 M⁻¹ s⁻¹.

As for `O=C(Nc1cccnc1)N1CCC2(CC1)CC(Cc1cccc(Oc3ccc(C(F)(F)F)cn3)c1)CO2` (stereo not drawn), in data set [1], the Ratio was found to be 846 M⁻¹ s⁻¹.

As for `O=C(Nc1cccnn1)N1CCC2(CC1)CC(CCc1cccc(Oc3ccc(C(F)(F)F)cn3)c1)C2`, the Ratio in data set [1] was 344 M⁻¹ s⁻¹.

On to `O=C(Nc1cccnn1)N1CCC2(CCC(c3cccc(Oc4ccc(C(F)(F)F)cn4)c3)C2)CC1` (stereo not drawn), for which the Ratio in data set [1] was 307 M⁻¹ s⁻¹.

`O=C(Nc1cccnn1)N1CCC2(CCC(c3cccc(Oc4ccc(C(F)(F)F)cn4)c3)O2)CC1` (stereo not drawn): in data set [1], the Ratio was 229 M⁻¹ s⁻¹.

As for `O=C(Nc1cccnn1)N1CCC2(CC1)CN(c1cccc(Oc3ccc(C(F)(F)F)cn3)c1)C2`, the Ratio in data set [1] is 18.3 M⁻¹ s⁻¹.

In the case of `O=C(Nc1cccnc1)N1CCC2(CC1)CC(c1cccc(Oc3ccc(C(F)(F)F)cn3)c1)C2`, the Ratio in data set [1] was determined as 914 M⁻¹ s⁻¹.

Regarding `O=C(Nc1cccnn1)N1CCC2(CC1)CC(c1cccc(Oc3ccc(C(F)(F)F)cn3)c1)CO2` (racemic), the Ratio in data set [1] amounted to 3130 M⁻¹ s⁻¹.
